Tests used:
T-p53C-Y220C = T-p53C-Y220C (Homo sapiens, UniProt P04637, M133L/N239Y/N268D/V203A/Y220C); assay: Isothermal titration calorimetry; assay type: binding
T-p53-Y220C = T-p53-Y220C (Homo sapiens, UniProt P04637, M133L/N239Y/N268D/V203A/Y220C); assay: 1H/15N-HSQC NMR titration; assay type: binding; conditions: 20 °C, 75 μM protein
p53 mutant Y220C [1] = conditions: binding to the mutation-induced crevice; cited from earlier work
p53 mutant Y220C [2] = conditions: in vitro; cited from earlier work

T-p53C-Y220C, sequence (P04637 102-292 limits assumed, stated change not applied): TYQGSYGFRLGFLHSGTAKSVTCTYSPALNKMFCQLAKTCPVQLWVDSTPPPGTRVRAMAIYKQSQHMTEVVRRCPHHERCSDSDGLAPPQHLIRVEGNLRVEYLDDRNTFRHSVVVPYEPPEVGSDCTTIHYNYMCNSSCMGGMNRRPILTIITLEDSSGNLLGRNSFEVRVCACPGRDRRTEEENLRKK
T-p53-Y220C, sequence (P04637 102-292 limits assumed, stated change not applied): as the sequence (P04637 102-292 limits assumed, stated change not applied) above

Row | Kd (T-p53C-Y220C) [µM] | Kd (T-p53-Y220C) [µM] | Structure (SMILES) | Kd (p53 mutant Y220C [1]) [µM] | effect on melting temperature of the protein (p53 mutant Y220C [2])
1 | 225 | 184 ± 23 | CN1CCC(N(C)Cc2cc(I)cc(I)c2O)CC1 [compound 3, 2,4-diiodo-6-((methyl(1-methylpiperidin-4-yl)amino)methyl)phenol] |  | 
2 |  |  | CCn1c2ccccc2c2cc(CNC)ccc21 [PhiKan083] | 150 | raises the melting temperature

— paper PMC3789257 (Journal of the American Chemical Society, 2012)
